Data from ChEMBL document CHEMBL3045720, “Synthesis and antifungal activity of 2-chloromethyl-1H-benzimidazole derivatives against phytopathogenic fungi in vitro” (J Agric Food Chem, 2013).
Converted amounts (≈) assume the structure as drawn.

How the values were obtained:
Cytospora [1] = assay: Antifungal activity against Cytospora sp. assessed as inhibition of mycelium growth at 100 ug/ml after 3 to 4 days; conditions: 72 to 96 h, read-out: GI
[2] = tested on: Colletotrichum gloeosporioides; assay: Antifungal activity against Colletotrichum gloeosporioides assessed as inhibition of mycelium growth at 100 ug/ml after 3 to 4 days; conditions: 72 to 96 h, read-out: GI
Alternaria solani [3] = assay: Antifungal activity against Alternaria solani assessed as inhibition of mycelium growth at 100 ug/ml […]; assay type: functional; conditions: 168 h, read-out: GI
Botrytis cinerea [4] = assay: Antifungal activity against Botryotinia fuckeliana assessed as inhibition of mycelium growth at 100 ug/ml […]; assay type: functional; conditions: 168 h, read-out: GI
Fusarium solani [5] = assay: Antifungal activity against Fusarium solani assessed as inhibition of mycelium growth after 1 week; assay type: functional, organism-based
Fusarium solani [6] = assay: Antifungal activity against Fusarium solani assessed as inhibition of mycelium growth at 100 ug/ml […]; assay type: functional; conditions: 168 h, read-out: GI
Alternaria solani [7] = assay: Antifungal activity against Alternaria solani assessed as inhibition of mycelium growth after 1 week; assay type: functional, organism-based
Botrytis cinerea [8] = assay: Antifungal activity against Botryotinia fuckeliana assessed as inhibition of mycelium growth after 1 week; assay type: functional, organism-based; conditions: 168 h
Cytospora [9] = assay: Antifungal activity against Cytospora sp. assessed as […]; assay type: functional, organism-based
[10] = tested on: Colletotrichum gloeosporioides; assay: Antifungal activity against Colletotrichum gloeosporioides assessed as inhibition of mycelium growth […]; assay type: functional, organism-based
[11] = Fusarium solani, 168 h, read-out: IC50
[12] = Alternaria solani, 168 h, read-out: IC50
[13] = Cytospora, 168 h, read-out: IC50
[14] = Colletotrichum gloeosporioides, read-out: IC50

SMILES	inhibition of growth at 100 µg/mL (Cytospora [1])	inhibition of growth at 100 µg/mL [2]	inhibition of growth at 100 µg/mL (Alternaria solani [3])	inhibition of growth at 100 µg/mL (Botrytis cinerea [4])	IC50 (Fusarium solani [5]; [11])	inhibition of growth at 100 µg/mL (Fusarium solani [6])	IC50 (Alternaria solani [7]; [12])	IC50 (Botrytis cinerea [8])	IC50 (Cytospora [9]; [13])	IC50 [10, 14]	IC50 (Fusarium solani [5])	IC50 (Alternaria solani [7])	IC50 (Cytospora [9])	IC50 [10]
CS(=O)(=O)n1c(CCl)nc2ccccc21	100%	100%	68%	79.9%	40.1 µg/mL (≈ 164 µM)	79.2%	> 100 µg/mL	57.7 µg/mL (≈ 236 µM)	31 µg/mL (≈ 127 µM)	11.4 µg/mL (≈ 46.5 µM)	–	–	–	–
Cn1c(COc2ccc3c(c2)OCO3)nc2cc([N+](=O)[O-])ccc21	12.4%	< 5%	7.22%	91.2%	–	34.8%	–	69.1 µg/mL (≈ 211 µM)	–	–	Not Active	Not Active	Not Active	Not Active
Cn1c(COc2ccc3c(c2)OCO3)nc2ccccc21	80.6%	81%	64%	88.3%	73 µg/mL (≈ 258 µM)	74.5%	> 100 µg/mL	63.7 µg/mL (≈ 226 µM)	54.3 µg/mL (≈ 192 µM)	55.7 µg/mL (≈ 197 µM)	–	–	–	–
CC(=O)c1ccc(OCc2nc3ccccc3n2C)cc1	87.1%	38.1%	55.7%	65.4%	39 µg/mL (≈ 139 µM)	81.8%	> 100 µg/mL	89.6 µg/mL (≈ 320 µM)	50.7 µg/mL (≈ 181 µM)	> 120 µg/mL	–	–	–	–
CC(=O)c1cccc(OCc2nc3ccccc3n2C)c1	55.5%	41.3%	64.5%	82.5%	82.4 µg/mL (≈ 294 µM)	78.5%	> 100 µg/mL	68.9 µg/mL (≈ 246 µM)	> 100 µg/mL	> 120 µg/mL	–	–	–	–
CC(=O)n1c(CCl)nc2ccccc21	8.05%	43.9%	11.3%	57.3%	–	21.4%	–	50.9 µg/mL (≈ 244 µM)	–	> 150 µg/mL	Not Active	Not Active	Not Active	–
Cn1c(COc2ccc(Cl)cc2)nc2ccccc21	76.3%	90.5%	77.8%	83%	> 100 µg/mL	64.1%	62.5 µg/mL (≈ 229 µM)	26.8 µg/mL (≈ 98.3 µM)	24.9 µg/mL (≈ 91.3 µM)	41.3 µg/mL (≈ 151 µM)	–	–	–	–
CC(=O)c1ccccc1OCc1nc2ccccc2n1C	64.5%	71.4%	65.5%	64.9%	> 100 µg/mL	64.7%	> 100 µg/mL	> 100 µg/mL	> 100 µg/mL	70.6 µg/mL (≈ 252 µM)	–	–	–	–
CCOC(=O)c1ccc(OCc2nc3ccccc3n2C)cc1	79.9%	71.7%	39.1%	35.9%	> 150 µg/mL	21.4%	> 150 µg/mL	> 150 µg/mL	52.6 µg/mL (≈ 169 µM)	49.7 µg/mL (≈ 160 µM)	–	–	–	–
Cn1c(COc2ccc(F)cc2)nc2ccccc21	80.6%	62.7%	85.2%	47.4%	31.5 µg/mL (≈ 123 µM)	83.9%	69.3 µg/mL (≈ 271 µM)	> 120 µg/mL	58.2 µg/mL (≈ 227 µM)	> 100 µg/mL	–	–	–	–
Cn1c(CCl)nc2ccccc21	45.4%	69.6%	51.6%	91.5%	> 150 µg/mL	28.8%	> 100 µg/mL	68.1 µg/mL (≈ 377 µM)	> 100 µg/mL	80.3 µg/mL (≈ 444 µM)	–	–	–	–
ClCc1nc2ccccc2[nH]1	< 5%	67.6%	25.3%	53.2%	–	6.59%	> 100 µg/mL	> 100 µg/mL	–	83.1 µg/mL (≈ 499 µM)	Not Active	–	Not Active	–
Cn1c(CCl)nc2cc([N+](=O)[O-])ccc21	100%	100%	100%	48.7%	23.3 µg/mL (≈ 103 µM)	100%	27.9 µg/mL (≈ 124 µM)	> 100 µg/mL	22.5 µg/mL (≈ 99.6 µM)	28 µg/mL (≈ 124 µM)	–	–	–	–
Cc1cc(O)no1 [HYMEXAZOL]	38.9%	49.2%	80.3%	100%	38.5 µg/mL (≈ 388 µM)	72.5%	14 µg/mL (≈ 142 µM)	8.92 µg/mL (≈ 90 µM)	> 100 µg/mL	> 100 µg/mL	–	–	–	–
O=S(=O)(c1ccc(Cl)cc1)n1c(CCl)nc2ccccc21	27.4%	74.6%	31.9%	57.3%	–	28.1%	–	> 100 µg/mL	–	22.3 µg/mL (≈ 65.3 µM)	Not Active	Not Active	Not Active	–
Cn1c(COc2ccc(Cl)cc2)nc2cc([N+](=O)[O-])ccc21	10.2%	6.35%	30.2%	100%	–	< 5%	–	13.4 µg/mL (≈ 42 µM)	–	–	Not Active	Not Active	Not Active	Not Active
Cn1c(COc2ccccc2)nc2ccccc21	84.2%	87.3%	75.4%	29.8%	18.6 µg/mL (≈ 78.1 µM)	84.5%	27.6 µg/mL (≈ 116 µM)	> 150 µg/mL	50 µg/mL (≈ 210 µM)	20.8 µg/mL (≈ 87.1 µM)	–	–	–	–
